Experimental data: patent US12485169B2, “Compounds” (GREY WOLF THERAPEUTICS LIMITED, priority 2018, dated 2025)

Target: T1, Purified ERAP1 (37-941)-10His (ERAP1) (Homo sapiens, UniProt Q9NZ08)
T1 construct: Purified ERAP1 (37-941)-10His (ERAP1)
Experiment: ERAP1 mediated hydrolysis of an amide substrate (10-mer inhibition assay), biochemical system
Settings: 10-mer substrate, 23° C., 1 h, excitation 279 nm / emission 355 nm; read-out: IC50 vs Decapeptide WRVYEKC(Dnp)ALK-acid (where Dnp is Dinitrophenyl maleimide) (10-mer)

T1 sequence (Q9NZ08 37-941): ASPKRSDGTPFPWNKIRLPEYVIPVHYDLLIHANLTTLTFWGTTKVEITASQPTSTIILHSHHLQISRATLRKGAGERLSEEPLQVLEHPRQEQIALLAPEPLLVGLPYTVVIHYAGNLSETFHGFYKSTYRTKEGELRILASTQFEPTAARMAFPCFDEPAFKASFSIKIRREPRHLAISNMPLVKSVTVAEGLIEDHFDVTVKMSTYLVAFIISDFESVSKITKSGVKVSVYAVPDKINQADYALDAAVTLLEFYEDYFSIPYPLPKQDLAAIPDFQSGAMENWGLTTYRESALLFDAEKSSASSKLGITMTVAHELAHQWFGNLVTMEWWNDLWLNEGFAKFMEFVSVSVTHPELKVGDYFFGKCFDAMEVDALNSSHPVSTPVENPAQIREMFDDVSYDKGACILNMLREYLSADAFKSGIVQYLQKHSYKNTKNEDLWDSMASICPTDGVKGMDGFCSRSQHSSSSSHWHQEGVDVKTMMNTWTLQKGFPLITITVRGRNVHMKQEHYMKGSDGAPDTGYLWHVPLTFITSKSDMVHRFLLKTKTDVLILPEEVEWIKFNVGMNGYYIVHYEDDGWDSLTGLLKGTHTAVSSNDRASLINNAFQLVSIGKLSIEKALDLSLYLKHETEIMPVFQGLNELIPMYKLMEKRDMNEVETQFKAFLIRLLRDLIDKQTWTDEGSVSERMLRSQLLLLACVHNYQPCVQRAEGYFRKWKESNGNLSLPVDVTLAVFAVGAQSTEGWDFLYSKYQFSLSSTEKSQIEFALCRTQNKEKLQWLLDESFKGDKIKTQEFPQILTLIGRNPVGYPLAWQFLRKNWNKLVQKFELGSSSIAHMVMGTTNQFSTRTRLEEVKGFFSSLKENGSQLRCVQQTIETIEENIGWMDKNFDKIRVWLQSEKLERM

Row | IC50 | Compound
1 | < 0.5 µM | CCc1ccc(C(=O)O)cc1S(=O)(=O)Nc1cc(Cl)ccc1N1CCC(F)(F)CC1 [Example 217, 3-(N-(5-chloro-2-(4,4-difluoropiperidin-1-yl)phenyl)sulfamoyl)-4-ethylbenzoic acid]
2 | < 0.5 µM | COc1ccc(C(=O)O)cc1S(=O)(=O)Nc1cc(Cl)ccc1N1CCC(F)(F)CC1 [Example 218, 3-(N-(5-chloro-2-(4,4-difluoropiperidin-1-yl)phenyl)sulfamoyl)-4-methoxybenzoic acid]
3 | < 0.5 µM | COc1ccc(C(=O)O)cc1S(=O)(=O)Nc1cc(Cl)ccc1N1CCCC(F)(F)C1 [Example 219, 3-(N-(5-chloro-2-(3,3-difluoropiperidin-1-yl)phenyl)sulfamoyl)-4-methoxybenzoic acid]
4 | < 0.5 µM | CCc1ccc(C(=O)O)cc1S(=O)(=O)Nc1cc(Cl)ccc1N1CCCC(F)(F)C1 [Example 220, 3-(N-(5-chloro-2-(3,3-difluoropiperidin-1-yl)phenyl)sulfamoyl)-4-ethylbenzoic acid]
5 | < 0.5 µM | COc1ccc(C(=O)O)cc1S(=O)(=O)Nc1cc(C#N)ccc1N1CCC(F)(F)CC1 [Example 221, 3-(N-(5-cyano-2-(4,4-difluoropiperidin-1-yl)phenyl)sulfamoyl)-4-methoxybenzoic acid]
6 | < 0.5 µM | CCc1ccc(C(=O)O)cc1S(=O)(=O)Nc1cc(C#N)ccc1N1CCC(F)(F)CC1 [Example 222, 3-(N-(5-cyano-2-(4,4-difluoropiperidin-1-yl)phenyl)sulfamoyl)-4-ethylbenzoic acid]
7 | < 0.5 µM | COc1ccc(C(=O)O)cc1S(=O)(=O)Nc1cc(C#N)ccc1N1CCCC(O)C1 (stereo not shown) [Example 223, 3-(N-(5-cyano-2-(3-hydroxypiperidin-1-yl)phenyl)sulfamoyl)-4-methoxybenzoic acid]
8 | < 0.5 µM | CCc1ccc(C(=O)O)cc1S(=O)(=O)Nc1cc(C#N)ccc1N1CCCC(O)C1 (stereo not shown) [Example 224, 3-(N-(5-cyano-2-(3-hydroxypiperidin-1-yl)phenyl)sulfamoyl)-4-ethylbenzoic acid]
9 | > 5 µM | CS(=O)(=O)c1ccc(C(=O)O)cc1S(=O)(=O)Nc1cc(C(F)(F)F)ccc1N1CCCCC1 [Example 225, 4-(methylsulfonyl)-3-(N-(2-(piperidin-1-yl)-5-(trifluoromethyl)phenyl)sulfamoyl)benzoic acid]
10 | < 5 µM | O=C(O)c1ccc(OCC(F)(F)F)c(S(=O)(=O)Nc2cc(C(F)(F)F)ccc2N2CCCCC2)c1 [Example 227, 3-(N-(2-(piperidin-1-yl)-5-(trifluoromethyl)phenyl)sulfamoyl)-4-(2,2,2-trifluoroethoxy)benzoic acid]
11 | < 0.5 µM | CC(C)(O)c1ccc(C(=O)O)cc1S(=O)(=O)Nc1cc(C(F)(F)F)ccc1N1CCCCC1 [Example 228, 4-(2-hydroxypropan-2-yl)-3-(N-(2-(piperidin-1-yl)-5-(trifluoromethyl)phenyl)sulfamoyl)benzoic acid]
12 | < 0.5 µM | O=C(O)c1ccc(CO)c(S(=O)(=O)Nc2cc(C(F)(F)F)ccc2N2CCCCC2)c1 [Example 229, 4-(hydroxymethyl)-3-(N-(2-(piperidin-1-yl)-5-(trifluoromethyl)phenyl)sulfamoyl)benzoic acid]
13 | < 0.5 µM | CCc1ccc(C(=O)O)cc1S(=O)(=O)Nc1ccc(C(F)(F)F)cc1N1CCCCC1 [Example 230, 4-ethyl-3-(N-(2-(piperidin-1-yl)-4-(trifluoromethyl)phenyl)sulfamoyl)benzoic acid]
14 | < 0.5 µM | CSc1ccc(C(=O)O)cc1S(=O)(=O)Nc1cc(C(F)(F)F)ccc1N1CCCCC1 [Example 232, 4-(methylthio)-3-(N-(2-(piperidin-1-yl)-5-(trifluoromethyl)phenyl)sulfamoyl)benzoic acid]
15 | < 0.5 µM | COc1ccc(C(=O)O)cc1S(=O)(=O)Nc1cc(C#N)ccc1N1CCCC(F)(F)C1 [Example 233, 3-(N-(5-cyano-2-(3,3-difluoropiperidin-1-yl)phenyl)sulfamoyl)-4-methoxybenzoic acid]
16 | < 0.5 µM | CCc1ccc(C(=O)O)cc1S(=O)(=O)Nc1cc(C#N)ccc1N1CCCC(F)(F)C1 [Example 234, 3-(N-(5-cyano-2-(3,3-difluoropiperidin-1-yl)phenyl)sulfamoyl)-4-ethylbenzoic acid]
17 | < 0.5 µM | COc1ccc(C(=O)O)cc1S(=O)(=O)Nc1cc(C(F)(F)F)ccc1N1CCCC[C@H]1C [Example 235, I-4-methoxy-3-(N-(2-(2-methylpiperidin-1-yl)-5-(trifluoromethyl)phenyl)sulfamoyl)benzoic acid]
18 | < 0.5 µM | CCc1ccc(C(=O)O)cc1S(=O)(=O)Nc1cc(C(F)(F)F)ccc1N1CCCC[C@H]1C [Example 236, I-4-ethyl-3-(N-(2-(2-methylpiperidin-1-yl)-5-(trifluoromethyl)phenyl)sulfamoyl)benzoic acid]
19 | < 0.5 µM | COc1ccc(C(=O)O)cc1S(=O)(=O)Nc1cc(C(F)(F)F)ccc1N1CCC(C#N)CC1 [Example 237, 3-(N-(2-(4-cyanopiperidin-1-yl)-5-(trifluoromethyl)phenyl)sulfamoyl)-4-methoxybenzoic acid]

Row | IC50 | Compound
20 | < 0.5 µM | CCc1ccc(C(=O)O)cc1S(=O)(=O)Nc1cc(C(F)(F)F)ccc1N1CCC(C#N)CC1 [Example 238, 3-(N-(2-(4-cyanopiperidin-1-yl)-5-(trifluoromethyl)phenyl)sulfamoyl)-4-ethylbenzoic acid]
21 | < 0.5 µM | COc1ccc(C(=O)O)cc1S(=O)(=O)Nc1cc(C(F)(F)F)ccc1N1CCCC[C@@H]1C [Example 239, (S)-4-methoxy-3-(N-(2-(2-methylpiperidin-1-yl)-5-(trifluoromethyl)phenyl)sulfamoyl)benzoic acid]
22 | < 0.5 µM | CCc1ccc(C(=O)O)cc1S(=O)(=O)Nc1cc(C(F)(F)F)ccc1N1CCCC[C@@H]1C [Example 240, (S)-4-ethyl-3-(N-(2-(2-methylpiperidin-1-yl)-5-(trifluoromethyl)phenyl)sulfamoyl)benzoic acid]
23 | < 0.5 µM | CCc1ccc(C(=O)O)cc1S(=O)(=O)Nc1cc(S(C)(=O)=O)ccc1N1CCCCC1 [Example 241, 4-ethyl-3-(N-(5-(methylsulfonyl)-2-(piperidin-1-yl)phenyl)sulfamoyl)benzoic acid]
24 | < 0.5 µM | CCc1ccc(C(=O)O)cc1S(=O)(=O)Nc1cc(-n2cnnn2)ccc1N1CCCCC1 [Example 242, 4-ethyl-3-(N-(2-(piperidin-1-yl)-5-(tetrazol-1-yl)phenyl)sulfamoyl)benzoic acid]
25 | < 0.5 µM | COc1ccc(C(=O)O)cc1S(=O)(=O)Nc1cc(C(F)(F)F)ccc1N1CCC[C@@H](O)C1 [Example 243, I-3-(N-(2-(3-hydroxypiperidin-1-yl)-5-(trifluoromethyl)phenyl)sulfamoyl)-4-methoxybenzoic acid]
26 | < 0.5 µM | COc1ccc(C(=O)O)cc1S(=O)(=O)Nc1cc(C(F)(F)F)ccc1N1CCC[C@H](O)C1 [Example 244, (S)-3-(N-(2-(3-hydroxypiperidin-1-yl)-5-(trifluoromethyl)phenyl)sulfamoyl)-4-methoxybenzoic acid]
27 | < 0.5 µM | COc1ccc(C(=O)O)cc1S(=O)(=O)Nc1cc(S(C)(=O)=O)ccc1N1CCC[C@@H](O)C1 [Example 245, I-3-(N-(2-(3-hydroxypiperidin-1-yl)-5-(methylsulfonyl)phenyl)sulfamoyl)-4-methoxybenzoic acid]
28 | < 0.5 µM | COc1ccc(C(=O)O)cc1S(=O)(=O)Nc1cc(S(C)(=O)=O)ccc1N1CCC[C@H](O)C1 [Example 246, (S)-3-(N-(2-(3-hydroxypiperidin-1-yl)-5-(methylsulfonyl)phenyl)sulfamoyl)-4-methoxybenzoic acid]
29 | < 0.5 µM | CCc1ccc(C(=O)O)cc1S(=O)(=O)Nc1cc(S(C)(=O)=O)ccc1N1CCC[C@H](O)C1 [Example 247, (S)-4-ethyl-3-(N-(2-(3-hydroxypiperidin-1-yl)-5-(methylsulfonyl)phenyl)sulfamoyl)benzoic acid]
30 | < 0.5 µM | COc1ccc(C(=O)O)cc1S(=O)(=O)Nc1cc(-n2cnnn2)ccc1N1CCC[C@@H](O)C1 [Example 248, I-3-(N-(2-(3-hydroxypiperidin-1-yl)-5-(tetrazol-1-yl)phenyl)sulfamoyl)-4-methoxybenzoic acid]
31 | < 0.5 µM | CCc1ccc(C(=O)O)cc1S(=O)(=O)Nc1cc(C(F)(F)F)ccc1N1CCC[C@@H](O)C1 [Example 249, I-4-ethyl-3-(N-(2-(3-hydroxypiperidin-1-yl)-5-(trifluoromethyl)phenyl)sulfamoyl)benzoic acid]
32 | < 0.5 µM | CCc1ccc(C(=O)O)cc1S(=O)(=O)Nc1cc(C(F)(F)F)ccc1N1CCC[C@H](O)C1 [Example 250, (S)-4-ethyl-3-(N-(2-(3-hydroxypiperidin-1-yl)-5-(trifluoromethyl)phenyl)sulfamoyl)benzoic acid]
33 | < 0.5 µM | CCc1ccc(C(=O)O)cc1S(=O)(=O)Nc1cc(S(C)(=O)=O)ccc1N1CCC[C@@H](O)C1 [Example 251, I-4-ethyl-3-(N-(2-(3-hydroxypiperidin-1-yl)-5-(methylsulfonyl)phenyl)sulfamoyl)benzoic acid]
34 | < 0.5 µM | CCc1ccc(C(=O)O)cc1S(=O)(=O)Nc1cc(-n2cnnn2)ccc1N1CCC[C@@H](O)C1 [Example 252, I-4-ethyl-3-(N-(2-(3-hydroxypiperidin-1-yl)-5-(tetrazol-1-yl)phenyl)sulfamoyl)benzoic acid]
35 | < 0.5 µM | COc1ccc(C(=O)O)cc1S(=O)(=O)Nc1cc(-n2cnnn2)ccc1N1CCC[C@H](O)C1 [Example 253, (S)-3-(N-(2-(3-hydroxypiperidin-1-yl)-5-(tetrazol-1-yl)phenyl)sulfamoyl)-4-methoxybenzoic acid]
36 | < 0.5 µM | CCc1ccc(C(=O)O)cc1S(=O)(=O)Nc1cc(-n2cnnn2)ccc1N1CCC[C@H](O)C1 [Example 254, (S)-4-ethyl-3-(N-(2-(3-hydroxypiperidin-1-yl)-5-(tetrazol-1-yl)phenyl)sulfamoyl)benzoic acid]
37 | < 5 µM | CCc1ccc(C(=O)O)cc1S(=O)(=O)Nc1cc(S(C)(=O)=O)ccc1N1CC(C)(O)C1 [Example 255, 4-ethyl-3-(N-(2-(3-hydroxy-3-methylazetidin-1-yl)-5-(methylsulfonyl)phenyl)sulfamoyl)benzoic acid]
